According to ChEMBL document CHEMBL1130525, “Robustaflavone, a naturally occurring biflavanoid, is a potent non-nucleoside inhibitor of hepatitis B virus replication in vitro” (Bioorg Med Chem Lett, 1997):

Tests used:
[1] = In vitro selectivity index measured for IC50 to that of EC90 was determined in human hepatoblastoma cell line (2.2.15 cells); assay type: functional
HepG2 [2] = assay: Effective concentration necessary to decrease extracellular Hepatitis B virus DNA levels by 50% in human hepatoblastoma cell line (2.2.15 cells) in vitro; assay type: functional, cell-based
HepG2 [3] = assay: Cytotoxicity towards human hepatoblastoma cell line (2.2.15 cells) measured by inhibition of neutral red dye uptake in vitro; assay type: functional, cell-based
HepG2 [4] = assay: Effective concentration necessary to decrease extracellular Hepatitis B virus DNA levels by 90% in human hepatoblastoma cell line (2.2.15 cells) in vitro; assay type: functional
HepG2 [5] = assay: Relative level of HBV viral DNA (Extracellular) following treatment of human hepatoblastoma cell line (2.2.15 cells) with the compound; assay type: functional
HepG2 [6] = assay: Relative level of HBV viral antigen (HBsAg) following treatment of human hepatoblastoma cell line (2.2.15 cells) with the compound; assay type: functional
HepG2 [7] = assay: Relative level of HBV viral antigen (HBeAg) following treatment of human hepatoblastoma cell line (2.2.15 cells) with the compound; assay type: functional
HepG2 [8] = assay: Relative level of HBV viral mRNA (3.6 kb mRNA) following treatment of human hepatoblastoma cell line (2.2.15 cells) with the compound; assay type: functional
HepG2 [9] = assay: Relative level of HBV viral mRNA (2.1 kb mRNA) following treatment of human hepatoblastoma cell line (2.2.15 cells) with the compound; assay type: functional
HepG2 [10] = assay: Relative level of HBV viral DNA (Intracellular) following treatment of human hepatoblastoma cell line (2.2.15 cells) with the compound; assay type: functional
HepG2 [11] = assay: Relative level of HBV viral antigen (HBcAg) following treatment of human hepatoblastoma cell line (2.2.15 cells) with the compound; assay type: functional

Compound	Ratio [1]	EC50 (HepG2 [2])	IC50 (HepG2 [3])	EC90 (HepG2 [4])	Relative level (HepG2 [5])	Relative level (HepG2 [6])	Relative level (HepG2 [7])	Relative level (HepG2 [8])	Relative level (HepG2 [9])	Relative level (HepG2 [10])	Relative level (HepG2 [11])
Nc1ccn([C@@H]2CS[C@H](CO)O2)c(=O)n1 [LAMIVUDINE]	11200	0.038 µM	1790 µM	0.16 µM							
Nc1nc(O)c2ncn(CCC(CO)CO)c2n1 [PENCICLOVIR]	471	0.19 µM	433 µM	0.92 µM							
O=c1cc(-c2ccc(O)c(-c3c(O)cc4oc(-c5ccc(O)cc5)cc(=O)c4c3O)c2)oc2cc(O)cc(O)c12 [ROBUSTAFLAVONE]	153	0.25 µM	337 µM	2.2 µM	1	97	86	93	106	5	138
Nc1ccn([C@H]2CC[C@@H](CO)O2)c(=O)n1 [ZALCITABINE]	30	1.4 µM	252 µM	8.4 µM	1	90	88	94	87	6	91
